Experimental data: paper PMC10047683, “A Novel Family of Lysosomotropic Tetracyclic Compounds for Treating Leukemia” (Cancers, 2023)

Experiments:
HL60 [1] = assay: Dose-response viability curves in AML cell lines; assay type: cell-based; conditions: Homo sapiens, HL-60, 48 h
Method: (§1) First, 2 × 10^5 (72 h assays in cell lines (Supplementary File S1)), 3 × 10^5 (48 h assays in cell lines) or 7.5 × 10^5 (primary AML, healthy donor buffy coats) cells per mL were cultured in 96-well plates, and all drugs were added at the indicated concentrations. In α-tocopherol experiments, cells were treated with growing concentrations of α-tocopherol and EDK drugs for 48 h. In the NAC and 3MA experiments, treatment was simultaneous with EDK compounds. In glucose deprivation experiments, cells were cultivated with a standard medium (glucose high, 2 g/L), a standard medium without glucose, or a standard medium with galactose (2 g/L) and without glucose. Cell viability was measured via 7-AAD (eBioscience) exclusion and Hoechst33342 (Sigma-Aldrich, St. Louis, MO, USA) positivity staining via flow cytometry, and the cell count was obtained through volume. In the experiments with the primary cells, analyses were performed inside the blast population as detected via blast gates (CD45^low SSC^int). For solid tumor cell lines, viability was analyzed using CellTiter-Glo® Luminescent Cell Viability Assay (Promega).

KG1 = assay: Dose-response viability curves in AML cell lines; assay type: cell-based; conditions: Homo sapiens, KG-1, 48 h
Method: as §1

Kasumi-1 = assay: Dose-response viability curves in AML cell lines; assay type: cell-based; conditions: Homo sapiens, 48 h
Method: as §1

MonoMac1 [2] = assay: Dose-response viability curves in AML cell lines; assay type: cell-based; conditions: Mono-Mac-1, 48 h
Method: as §1

SKM-1 = assay: Dose-response viability curves in AML cell lines; assay type: cell-based; conditions: Homo sapiens, 48 h
Method: as §1

THP1 = assay: Dose-response viability curves in AML cell lines; assay type: cell-based; conditions: Homo sapiens, THP-1, 48 h
Method: as §1

U937 = assay: Dose-response viability curves in AML cell lines; assay type: cell-based; conditions: Homo sapiens, U-937, 48 h
Method: as §1

[3] = test system: primary AML samples (lineage-depleted umbilical cord blood cells as healthy counterpart); assay: Clonogenicity assay; assay type: cell-based, human
Method: 1,000 cells of AML cell lines or 50,000 primary cells (both AML and lin-depleted UCB) were treated at the indicated concentration for 18 h, and cultured in 1 mL of MethoCult H4034 Optimum (StemCell Technologies, Vancouver, BC, Canada).
Colonies were screened based on morphology and cellularity at day 7 (cell lines) […]
Calcium mobilization assay
1 x 10^6 cells per mL were loaded for 30’ at 37 °C with the Fura-2-AM probe (Thermo Fisher) at a final 2 µM concentration in pre-warmed calcium- and magnesium-free Hanks BSA solution. Cells were then washed and resuspended in Hanks BSA solution with calcium and magnesium at 3 x 10^5 cells per mL. In parallel, 50µL of drugs in Hanks BSA solution with calcium and magnesium were added to 96-well black wall clear bottom plates and background fluorescence was read at Ex340/Em508 and Ex380/Em508. Cells were then added to the plate (50µL/well) and fluorescence was acquired at indicated timepoints using a Synergy HT Multi-Detection Microplate Reader (BioTek). For the analysis, all values were subtracted their corresponding background fluorescence, and the ratio 340/380 was calculated. Finally, ratios were normalized to vehicle-treated […]
Semi-Quantitative Real Time PCR

MonoMac1 AML cells = assay: MonoMac1 AML xenograft, bone-marrow engraftment; assay type: in vivo, NSG mice; conditions: 30 mg/kg IP, 10 consecutive days; engraftment at Day 12
Method: We myeloablated 6–8-week-old NOD.Cg-Prkdc^scid Il2rg^tm1Wjl/SzJ (NSG, Jackson Laboratories) mice with busulfan (30 mg/kg IP) at Day 0. The next day, mice were transplanted with KG1 (10 million cells per mouse) or MonoMac1 (1 million per mouse) AML cells that had previously been transduced with luciferase-containing plasmid pLL-EF1a-rFLuc-T2A-GFP (Systems Bioscience #LL410PA-1) and left untreated for 3 (MonoMac1) or 5 days (KG1). For IP administration, compounds were dissolved in DMSO and diluted in saline prior to injection. For SC treatments, drugs were solubilized using Tween 80 (Escuder) and high-viscosity carboxymethylcellulose (CMC, Merck). For bioluminescence detection, mice were SC-administered 150 mg/kg Xenolight D-luciferin potassium salt luminescent substrate (Perkin Elmer), and the luminescence of isoflurane-anesthetized mice was acquired after 10 min in an IVIS Lumina II imaging device (Perkin Elmer) at adequate acquisition times (2 min for MonoMac-1, 30 s for KG1). The following quantitation and analysis were conducted with Aura Imaging software (Spectral Instruments Imaging). The last day of the experiment, mice were culled, and tibias and femurs were harvested. Engraftment was determined as the percentage of live human CD45-expressing cells in the bone marrow as assessed with flow cytometry. […]

AML patient samples = assay: Combination with ATO, viability by flow cytometry and Bliss synergy; assay type: cell-based, human; conditions: for Effectivity (%Viability reduction): 48 h
Method: as §1
(§2) Synergy was calculated using SynergyFinder 2.0 with the Bliss reference model.

[4] = test system: healthy donor blood samples (BC: buffy coat); assay: as above; assay type: cell-based, human; conditions: 48 h
Method: as §1, §2

HL60 [5] = assay: Combination with ATO in AML cell lines, viability and Bliss synergy; assay type: cell-based; conditions: upper maps (HL60), 48 h
Method: as §1, §2

MonoMac1 [6] = assay: as above; assay type: cell-based; conditions: lower maps (MonoMac1), 48 h
Method: as §1, §2

[7] = ADME-Tox: clearance / metabolic rate; assay type: in vitro ADME
Method: (§3) All ADMET studies were performed in Eurofins Discovery Services (CEREP laboratories, Celle-Lévescault France). The pharmacokinetic studies were performed in Draconis Pharma SL (Barcelona, Spain) in CD-1 mice treated with 30 mg/kg EDK87 or EDK88 via SC or OG. Blood was collected by cardiac puncture at 0.5, 1, 2, 4, or 24 h.

hERG = target: T1, hERG (Homo sapiens, UniProt Q12809); assay: In vitro hERG inhibition; assay type: biochemical
T1 construct: Eurofins Discovery Services (CEREP laboratories)
T1 sequence (Q12809 whole entry): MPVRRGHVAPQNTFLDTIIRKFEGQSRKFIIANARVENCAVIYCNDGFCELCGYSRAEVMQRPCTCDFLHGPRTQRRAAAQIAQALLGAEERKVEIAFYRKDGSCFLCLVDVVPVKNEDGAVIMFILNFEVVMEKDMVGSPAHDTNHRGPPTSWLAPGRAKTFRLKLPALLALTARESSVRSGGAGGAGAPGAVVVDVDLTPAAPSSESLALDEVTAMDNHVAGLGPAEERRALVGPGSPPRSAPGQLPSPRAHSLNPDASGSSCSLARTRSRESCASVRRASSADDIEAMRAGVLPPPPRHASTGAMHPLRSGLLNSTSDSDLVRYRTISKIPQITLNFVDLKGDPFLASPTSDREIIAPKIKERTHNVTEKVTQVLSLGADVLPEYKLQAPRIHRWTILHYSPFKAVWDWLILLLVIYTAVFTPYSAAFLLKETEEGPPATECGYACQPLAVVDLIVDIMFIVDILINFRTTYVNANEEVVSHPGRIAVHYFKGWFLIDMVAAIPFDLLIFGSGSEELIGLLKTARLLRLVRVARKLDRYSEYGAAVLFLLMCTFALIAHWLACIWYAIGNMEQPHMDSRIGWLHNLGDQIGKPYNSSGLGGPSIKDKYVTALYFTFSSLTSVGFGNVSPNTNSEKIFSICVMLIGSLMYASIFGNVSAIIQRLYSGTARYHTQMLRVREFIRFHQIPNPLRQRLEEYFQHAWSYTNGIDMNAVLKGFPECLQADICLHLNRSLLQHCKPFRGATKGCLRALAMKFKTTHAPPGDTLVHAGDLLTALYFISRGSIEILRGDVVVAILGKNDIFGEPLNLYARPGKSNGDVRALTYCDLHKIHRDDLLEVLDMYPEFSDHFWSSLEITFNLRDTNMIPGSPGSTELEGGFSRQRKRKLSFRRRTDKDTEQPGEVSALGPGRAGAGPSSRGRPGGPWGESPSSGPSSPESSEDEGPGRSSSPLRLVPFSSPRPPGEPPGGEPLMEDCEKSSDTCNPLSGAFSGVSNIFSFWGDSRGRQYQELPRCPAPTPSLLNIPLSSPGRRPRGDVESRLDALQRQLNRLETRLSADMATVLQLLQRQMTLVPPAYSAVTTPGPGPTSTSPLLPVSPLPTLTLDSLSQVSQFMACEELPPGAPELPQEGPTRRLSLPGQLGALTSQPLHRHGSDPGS
Method: as §3

EC50 (HL60 [1]): 6.2 ± 0.9 µM
EC50 (SKM-1): 8.1 ± 1.8 µM
EC50 (THP1): 11.2 ± 0.01 µM
EC50 (U937): 6.9 ± 0.07 µM
SMILES: CN1CCC(=C2c3ccccc3-c3c2sc2ccccc32)CC1 [EDK-87]
EC50 (KG1): 7 ± 1.2 µM
EC50 (Kasumi-1): 6.3 ± 0.35 µM
EC50 (MonoMac1 [2]): 8.6 ± 1.4 µM
clonogenicity, effect in AML ([3]; primary AML samples): 77.9% ± 9.2
therapeutic window (clonogenicity) ([3]; primary AML vs lineage-depleted umbilical cord blood): 3.2
reduced the leukemic burden in the bone marrow (MonoMac1 AML cells): 58.44%
synergy with ATO (AML patient samples; AML cell lines and three primary AML samples): highly synergistic
Effectivity (%Viability reduction) (AML patient samples; AML#63, single agent 5 µM): -5%
Effectivity (%Viability reduction) (AML patient samples; AML#63, single agent 10 µM): -19%
Effectivity (%Viability reduction) (AML patient samples; AML#98, single agent 1 µM): -9%
Effectivity (%Viability reduction) (AML patient samples; AML#98, single agent 5 µM): 0%
Effectivity (%Viability reduction) (AML patient samples; AML#98, single agent 10 µM): 8%
Effectivity (%Viability reduction) (AML patient samples; AML#133, single agent 1 µM): -9%
Effectivity (%Viability reduction) (AML patient samples; AML#133, single agent 5 µM): 3%
Effectivity (%Viability reduction) (AML patient samples; AML#133, single agent 10 µM): 19%
Effectivity (%Viability reduction) ([4]; BC#1, single agent 1 µM): 0%
Effectivity (%Viability reduction) ([4]; BC#1, single agent 5 µM): 4%
Effectivity (%Viability reduction) ([4]; BC#1, single agent 10 µM): 19%
Effectivity (%Viability reduction) ([4]; BC#2, single agent 1 µM): 0%
Effectivity (%Viability reduction) ([4]; BC#2, single agent 5 µM): 4%
Effectivity (%Viability reduction) ([4]; BC#2, single agent 10 µM): 14%
Effectivity (%Viability reduction) (HL60 [5]; EDK compound alone 1 µM): 18%
Effectivity (%Viability reduction) (HL60 [5]; EDK compound alone 3 µM): 30%
Effectivity (%Viability reduction) (HL60 [5]; EDK compound alone 10 µM): 84%
Effectivity (%Viability reduction) (MonoMac1 [6]; EDK compound alone 1 µM): 29%
Effectivity (%Viability reduction) (MonoMac1 [6]; EDK compound alone 3 µM): 33%
Effectivity (%Viability reduction) (MonoMac1 [6]; EDK compound alone 10 µM): 61%
metabolic rate as compared to EDK-88 [7]: higher
hERG inhibition (hERG): concerning results
